We go through 4 compounds from patent US20050032124A1, “Identification of genotype-selective agents for treating Huntington's disease” (priority 2003, published 2005).

Data set [1] has as its system PC12 cells expressing Htt-Q103. The experiment in a line: PC12 Htt-Q103 toxicity assay, Alamar Blue viability. On the set-up: rescue of Htt-Q103 toxicity: dose or concentration left out as unconfirmed. Type of data set: cell-based, rat. The source says: In the first cell system, Applicants developed, in collaboration with Dr. Erik Schweitzer (UCLA), a high-throughput screen (HTS) for compounds that rescue polyQ-induced apoptosis in immortalized rat neuronal cells (Suhr S T, et al., Proc Natl Acad Sci U S A 1998, 95: 7999-8004). PC12 rat pheochromocytoma cells were transfected with exon-1 of the human huntingtin gene containing either 25 or 103 N-terminal polyQ repeats. For enhanced stability the repeat portion consists of alternating CAG/CAA repeats (FIG. 11A). In addition, the expression construct incorporates enhanced green fluorescent protein (EGFP) as a reporter that enables tracking of the fusion proteins by direct immunofluorescence microscopy or biochemical (immunoprecipitation or Western blotting) detection with anti-EGFP antibodies (Schweitzer E S, et al., submitted). Finally, expression is regulated using the Bombyx mori ecdysone receptor and ecdysone analog, tebufenozide (Suhr S T, et al., Proc Natl Acad Sci U S A 1998, 95: 7999-8004). […]
The high-throughput screen developed by Applicants using the PC12 cell system uses the fluorescent viability dye Alamar Blue™ (FIG. 11B). […] The Z-factor is a commonly used quantitative index for maximal signal separation and minimal variability. […]

The next data set concerns topoisomerase I (TOPI). Put plainly: Western blot for TOPI expression. Conditions: BJ primary cells. It counts as cell-based, human. The source says:
(A-C) Western blot of lysates from BJ, BJ-TERT, BJ-TERT/LT/ST, BJ-TERT/LT/ST/RAS^V12, BJ-TERT/LT/RAS^V12 and BJ-TERT/LT/RAS^V12/ST cells with an antibody directed against topoisomerase II (A) or TOPI (B, C). In panel (C), cells were transfected with an siRNA directed against TOPI, lamic A/C or with a control double strand DNA duplex of the same length (TOPI dsDNA). In each case, the blot was probed with an antibody against eIF-4E to identify differences in the amount of protein loaded. The relative amount is quantitated below each band. […] Cell number was determined after transfection with an siRNA directed against TOPI and treatment with the indicated concentrations of camptothecin. (E) Okadaic acid, an inhibitor of PP2A and other cellular phosphatases, sensitizes primary human cells to camptothecin. BJ primary cells were treated simultaneously with the indicated concentrations of both camptothecin and okadaic acid and the effect on calcein AM viability staining was determined. […] BJ primary cells were treated with the indicated concentrations of okadaic acid and the expression level of TOPI was determined by western blot. The relative amount is quantitated below each band. […]

The subject of another data set is BJ primary cells. The experiment in a line: Sensitization of primary cells by co-treatment, calcein AM viability staining. Type of data set: cell-based, human. As to conditions: for effect on calcein AM viability staining, alone: BJ primary cells. The source says: (A-C) Western blot of lysates from BJ, BJ-TERT, BJ-TERT/LT/ST, BJ-TERT/LT/ST/RAS^V12, BJ-TERT/LT/RAS^V12 and BJ-TERT/LT/RAS^V12/ST cells with an antibody directed against topoisomerase II (A) or TOPI (B, C). In panel (C), cells were transfected with an siRNA directed against TOPI, lamic A/C or with a control double strand DNA duplex of the same length (TOPI dsDNA). In each case, the blot was probed with an antibody against eIF-4E to identify differences in the amount of protein loaded. The relative amount is quantitated below each band. […] Cell number was determined after transfection with an siRNA directed against TOPI and treatment with the indicated concentrations of camptothecin. (E) Okadaic acid, an inhibitor of PP2A and other cellular phosphatases, sensitizes primary human cells to camptothecin. BJ primary cells were treated simultaneously with the indicated concentrations of both camptothecin and okadaic acid and the effect on calcein AM viability staining was determined. […] BJ primary cells were treated with the indicated concentrations of okadaic acid and the expression level of TOPI was determined by western blot. The relative amount is quantitated below each band.
The compounds in group (iii) are camptothecin (CPT) and a novel compound from a combinatorial library, which Applicants have named erastin, for eradicator of RAS and ST-expressing cells (FIG. 2). Efficient CPT-induced and erastin-induced cell death requires the presence of both ST and RAS^V12 (FIGS. 3 and 4 and Table 1). Although CPT and erastin have a similar genetic basis of selectivity, they have distinct mechanisms of action. […] The phosphatase inhibitor okadaic acid was capable of sensitizing otherwise resistant BJ primary cells to CPT (FIG. 5E), possibly because okadaic acid upregulates TOPI (FIG. 5F).

Data set [2] has as its system BJELR cells (BJ-TERT/LT/ST/RAS^V12). Put plainly: Screen of ACL library for suppressors of erastin activity (calcein AM). Conditions: 4 μg/ml compound, 5 μg/ml erastin. Type of data set: cell-based, human. As to the method:
ACL library comprises 1,540 compounds and all compounds were prepared in DMSO at […] in 384-well polypropylene plates and stored at −20° C. Replica daughter plates for each library plate were prepared using Zymark Scilone ALH. The daughter plates were diluted 50 fold in DMEM and compound concentration in the daughter plate is 80 μg/ml with 2% DMSO. In assay plate compound from the daughter plate is diluted 20 fold with cell suspension, thus final concentration of each compound is 4 μg/ml.
BJELR cells were seeded at 6000 cells/well (57μl) (for co-treatment screen) and 5000 cells/well (57 μl) (for pretreatment screen) in 384-well black, clear bottom plates using syringe bulk dispenser. For co-treatment suppressor screen, cells were treated with 3 μl of compound from the daughter plates of ACL library (final concentration in assay plate at 4 μg/ml) and at the same time treated with 5 μg/ml of erastin. Compound transfer was done using 384 fixed cannula head. Plates were incubated for 48 hours at 37° C. in incubator with 5% CO2. For the pretreatment screens, cells were pre-incubated with the compound from ACL daughter library plate for overnight and then treated with 5 μg/ml of erastin for further 48 hours. […] Fluorescence intensity was determined using Fusion platereader with filters centered in an excitation of 485 nm and emission of 535 nm. […]

The subject of data set [3] is BJELR cells (BJ-TERT/LT/ST/RAS^V12) versus BJEH cells (BJ-TERT). Put plainly: Erastin analogs: activity and selectivity in tumor cells versus normal cells. Type of data set: cell-based, human. The source says: Applicants additionally tested 135 analogs of erastin for activity and selectivity in tumor cells versus normal cells. […] This compound was named erastin B (see FIG. 8). […] BJELR cells are BJ-TERT/LT/ST/RAS^V12 cells, and BJEH are BJ-TERT cells.

In the case of `COC(=O)CC(NC(=O)OC(C)(C)C)C(=O)CF` [BOC-D-FMK, Boc-Asp(Ome)-fluoromethyl ketone], the “rescue of the Htt-Q103-induced cytotoxicity” value in data set [1] (50 μM, added at the time of tebufenozide induction) is listed as ≥ 100%. In addition, the “rescue of Htt-Q103 toxicity” value in data set [1] (72 hour induction with tebufenozide) was “rescues Htt-Q103 toxicity”.
On to `C=C1[C@@H](O)[C@@H]2O[C@]3(CC[C@H](/C=C/[C@@H](C)[C@@H]4CC(C)=C[C@@]5(O[C@H](C[C@@](C)(O)C(=O)O)CC[C@H]5O)O4)O3)CC[C@H]2O[C@@H]1[C@@H](O)C[C@H](C)[C@H]1O[C@@]2(CCCCO2)CC[C@H]1C` [okadaic acid], for which the “expression of TOPI (western blot)” value in the data set on topoisomerase I (TOPI) is “stimulates expression of TOPI”. In addition, the “sensitization of cells to camptothecin” value in the data set with BJ primary cells (BJ (or BJ-TERT) cells, simultaneous treatment) is given as “renders BJ cells sensitive to camptothecin”. The “sensitization of cells to erastin” value in the data set with BJ primary cells (BJ or BJ-TERT cells) was “does not render BJ or BJ-TERT cells sensitive to erastin”. Further, the figures for the “effect on calcein AM viability staining, alone” value with BJ primary cells (3.4 nM) and in the data set on BJ primary cells (highest concentrations tested) were “no effect on its own” and “kills BJ cells”, respectively.
Regarding `Cc1c(C)c2c(c(C)c1O)CC[C@@](C)(CCC[C@H](C)CCC[C@H](C)CCCC(C)C)O2` [α-tocopherol], the “suppression of erastin activity” value in data set [2] was “suppress erastin activity”.
Consider erastin B, for which, in data set [3], the “activity and selectivity in tumor cells versus normal cells” value was “active and selective, but less potent than erastin”.
